The results in this text go back to ChEMBL document CHEMBL1149776, “Synthesis and biological evaluation of some thiazolyl and thiadiazolyl derivatives of 1H-pyrazole as anti-inflammatory antimicrobial agents” (Eur J Med Chem, 2008).

In brackets after ≈: the same amount, converted by molar mass. Where only a bound is given, the exact number is not on record here.

One series concerns Candida albicans. The series can be described thus: Antimicrobial activity against Candida albicans. Type of series: functional.
For series [1], the species on record is Rattus norvegicus. The series can be described thus: Antiinflammatory activity in Sprague-Dawley rat cotton pellet-induced granuloma model. Type of series: functional.
In a further series the test system is Escherichia coli. Briefly: Antimicrobial activity against Escherichia coli ATCC 25922. Format: functional.
The test system of the next series is Staphylococcus aureus. Briefly: Antimicrobial activity against Staphylococcus aureus ATCC 19433. Type of series: functional.
For series [2], the system named is Rattus norvegicus. The series can be described thus: Gastrointestinal toxicity in albino rat assessed as ulcerogenic effect at 30 umol/kg, po for 3 days. Type of series: organism-based. The conditions noted are these: in vivo, 72 h.
Series [3] has as its target Prostaglandin G/H synthase 1 (Homo sapiens, UniProt P23219). The series can be described thus: Inhibition of human platelet COX1.
For series [4], the system named is Rattus norvegicus. The series can be described thus: Antiinflammatory activity in albino rat assessed as protection against carrageenan-induced paw edema at 10 umol/kg, sc administered 1 hr prior to carrageenan challenge relative to indomethacin. Type of series: functional. (In general: In the carrageenan paw model, swelling and tenderness develop within hours.)

The subject of series [5] is Mus musculus. The series can be described thus: Toxicity in parenterally dosed mouse upto 65 mg/kg assessed as mortality upto 7 days. Type of series: organism-based. The arrangement: dose 65 mg/kg. The conditions noted are these: in vivo, 168 h.
The test system of series [6] is Mus musculus. Briefly: Toxicity in mouse upto 40 mg/kg, po assessed as mortality after 24 hrs. Type of series: organism-based. On the set-up: dose 40 mg/kg, route oral. The conditions noted are these: in vivo.

Chain of Prostaglandin G/H synthase 1 (P23219 whole entry): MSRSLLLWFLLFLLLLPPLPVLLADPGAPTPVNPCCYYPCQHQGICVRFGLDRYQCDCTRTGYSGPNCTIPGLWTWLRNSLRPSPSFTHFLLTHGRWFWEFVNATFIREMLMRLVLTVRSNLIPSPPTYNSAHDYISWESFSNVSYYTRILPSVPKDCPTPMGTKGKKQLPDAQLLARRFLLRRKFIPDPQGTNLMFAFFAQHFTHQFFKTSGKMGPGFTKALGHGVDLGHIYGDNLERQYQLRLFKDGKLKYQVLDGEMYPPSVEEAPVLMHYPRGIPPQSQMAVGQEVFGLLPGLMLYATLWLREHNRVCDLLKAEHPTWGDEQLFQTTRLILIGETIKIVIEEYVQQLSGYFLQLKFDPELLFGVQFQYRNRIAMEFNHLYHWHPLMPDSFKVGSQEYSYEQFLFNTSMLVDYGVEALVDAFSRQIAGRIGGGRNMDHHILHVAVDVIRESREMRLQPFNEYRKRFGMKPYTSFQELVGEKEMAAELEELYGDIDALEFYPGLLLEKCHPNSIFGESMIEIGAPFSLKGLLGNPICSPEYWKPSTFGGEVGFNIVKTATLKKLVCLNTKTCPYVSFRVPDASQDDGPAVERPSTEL

On to `CC(=O)N(C1=NN(C(C)=O)C(c2cn(-c3ccc(S(=O)(=O)/N=C/N(C)C)cc3)nc2-c2ccccc2)S1)c1ccc(C)cc1` (stereo unspecified), for which the MIC (as a rule, the smallest concentration in the dilution series that meets the test's criterion for growth inhibition) with Candida albicans was 25 µg/mL (≈ 39.7 µM); with Escherichia coli, 50 µg/mL (≈ 79.4 µM); in the series on Staphylococcus aureus it was 100 µg/mL (≈ 159 µM). In the series filed under Rattus norvegicus [1], the ED50 was determined as 14.86 µmol. Further, in the series with Rattus norvegicus [2], the Activity is 10%.
The corresponding values for `CN(C)/C=N/S(=O)(=O)c1ccc(-n2cc(/C=N\N=C3/SCC(=O)N3c3ccccc3)c(-c3ccccc3)n2)cc1` are 100 µg/mL (≈ 175 µM), 50 µg/mL (≈ 87.5 µM), 25 µg/mL (≈ 43.7 µM), 13.36 µmol and 10%.
On to `Cc1ccc(-n2c(-c3ccc(Br)cc3)cs/c2=N\N=C/c2cn(-c3ccc(S(=O)(=O)/N=C/N(C)C)cc3)nc2-c2ccccc2)cc1`, for which the minimal inhibitory concentration (MIC) in the series with Candida albicans is 100 µg/mL (≈ 138 µM); in the series on Escherichia coli it was 50 µg/mL (≈ 69 µM); in the series with Staphylococcus aureus, 50 µg/mL (≈ 69 µM). The ED50 in the series filed under Rattus norvegicus [1] was 11.06 µmol. In [3], the IC50 was found to be 96.25 µmol. The Activity with Rattus norvegicus [4] was 94.46%; with Rattus norvegicus [2], 0%.
Regarding `CC1(C)S[C@@H]2[C@H](NC(=O)[C@H](N)c3ccccc3)C(=O)N2[C@H]1C(=O)O` [AMPICILLIN], the minimum inhibitory concentration (MIC) against Escherichia coli came to 25 µg/mL (≈ 71.5 µM); in the series with Staphylococcus aureus it was 12.5 µg/mL (≈ 35.8 µM).
In the case of `CN(C)/C=N/S(=O)(=O)c1ccc(-n2cc(-c3nnc(Nc4ccccc4)s3)c(-c3ccccc3)n2)cc1`, the MIC in the series on Candida albicans was 100 µg/mL (≈ 189 µM); in the series with Escherichia coli, 100 µg/mL (≈ 189 µM); with Staphylococcus aureus, over 200 µg/mL. In addition, the ED50 in the series filed under Rattus norvegicus [1] was 11.38 µmol. Further, in the series on Rattus norvegicus [2], the Activity was found to be 0%.
Turning to `COc1ccc2c(c1)c(CC(=O)O)c(C)n2C(=O)c1ccc(Cl)cc1` [INDOMETHACIN], the ED50 in the series filed under Rattus norvegicus [1] worked out at 9.58 µmol. The Activity with Rattus norvegicus [2] is listed as 100%.
`CN(C)/C=N/S(=O)(=O)c1ccc(-n2cc(-c3nnc(Nc4ccc(Cl)cc4)s3)c(-c3ccccc3)n2)cc1`: the MIC in the series with Candida albicans was over 200 µg/mL; in the series with Escherichia coli, 100 µg/mL (≈ 177 µM); in the series on Staphylococcus aureus, 100 µg/mL (≈ 177 µM). Also, in the series filed under Rattus norvegicus [1], the ED50 stood at 11.88 µmol. In the series on Rattus norvegicus [2], the Activity came out at 10%.
On to `CN(C)/C=N/S(=O)(=O)c1ccc(-n2cc(/C=N\N=c3/scc(-c4ccc(Br)cc4)n3-c3ccc(Cl)cc3)c(-c3ccccc3)n2)cc1`, for which the MIC was determined as 50 µg/mL (≈ 67.1 µM) against Candida albicans, 100 µg/mL (≈ 134 µM) in the series on Escherichia coli and 100 µg/mL (≈ 134 µM) against Staphylococcus aureus. In the series listed under Rattus norvegicus [1], this molecule came in with an ED50 of 9.56 µmol. Further, the results for the Activity entry in the series on Mus musculus [5], in the series with Mus musculus [6] and in the series on Rattus norvegicus [2] were “Non-toxic”, “Non-toxic” and 0%, respectively.
In the case of `CC(=O)N(C1=NN(C(C)=O)C(c2cn(-c3ccc(S(=O)(=O)/N=C/N(C)C)cc3)nc2-c2ccccc2)S1)c1ccc(Cl)cc1` (stereo unspecified), the minimum inhibitory concentration (MIC) was 25 µg/mL (≈ 38.5 µM) against Candida albicans, 50 µg/mL (≈ 76.9 µM) in the series on Escherichia coli and over 200 µg/mL in the series on Staphylococcus aureus. In addition, the ED50 in the series listed under Rattus norvegicus [1] was 13.96 µmol. Besides, the Activity in the series with Rattus norvegicus [2] is reported as 10%.
For `CN(C)/C=N/S(=O)(=O)c1ccc(-n2cc(/C=N\N=c3/scc(-c4ccc(Br)cc4)n3-c3ccccc3)c(-c3ccccc3)n2)cc1`, the minimum inhibitory concentration (MIC) with Candida albicans is over 200 µg/mL; against Escherichia coli, 25 µg/mL (≈ 35.2 µM); with Staphylococcus aureus it was 25 µg/mL (≈ 35.2 µM). In addition, the ED50 in the series listed under Rattus norvegicus [1] is 12.96 µmol. In the series with Rattus norvegicus [2], the Activity was found to be 0%.
Take `CN(C)/C=N/S(=O)(=O)c1ccc(-n2cc(/C=N\N=C3/SCC(=O)N3c3ccc(Cl)cc3)c(-c3ccccc3)n2)cc1`: the MIC in the series with Candida albicans is over 200 µg/mL; in the series with Escherichia coli, 100 µg/mL (≈ 165 µM); against Staphylococcus aureus, 25 µg/mL (≈ 41.2 µM). In the series listed under Rattus norvegicus [1], this molecule had an ED50 of 9.12 µmol. In series [3], this molecule gave an IC50 of over 100 µmol. Besides, the Activity result in the series with Mus musculus [5] is listed as “Non-toxic”; with Rattus norvegicus [4], 104.16%; in the series with Mus musculus [6], “Non-toxic”; in the series with Rattus norvegicus [2] it was 10%.
Take `CC(=O)N(C1=NN(C(C)=O)C(c2cn(-c3ccc(S(=O)(=O)/N=C/N(C)C)cc3)nc2-c2ccccc2)S1)c1ccccc1` (stereo unspecified): the MIC was 50 µg/mL (≈ 81.2 µM) with Candida albicans, 50 µg/mL (≈ 81.2 µM) against Escherichia coli and over 200 µg/mL against Staphylococcus aureus. Further, the ED50 in the series filed under Rattus norvegicus [1] turned out to be 12.54 µmol. The Activity in the series on Rattus norvegicus [2] worked out at 20%.
On to `Cc1ccc(N2C(=O)CS/C2=N\N=C/c2cn(-c3ccc(S(=O)(=O)/N=C/N(C)C)cc3)nc2-c2ccccc2)cc1`, for which the minimum inhibitory concentration (MIC) against Candida albicans was 100 µg/mL (≈ 171 µM); against Escherichia coli, 25 µg/mL (≈ 42.7 µM); against Staphylococcus aureus, 100 µg/mL (≈ 171 µM). In the series filed under Rattus norvegicus [1], this molecule displayed an ED50 of 9.34 µmol. In series [3], this molecule registered an IC50 of 87.12 µmol. The Activity entry was “Non-toxic” in the series with Mus musculus [5], 98.65% with Rattus norvegicus [4], “Non-toxic” with Mus musculus [6] and 20% with Rattus norvegicus [2].
For the molecule `Cc1ccc(Nc2nnc(-c3cn(-c4ccc(S(=O)(=O)/N=C/N(C)C)cc4)nc3-c3ccccc3)s2)cc1`, the values for the MIC in the series with Candida albicans, in the series on Escherichia coli and against Staphylococcus aureus were over 200 µg/mL, 100 µg/mL (≈ 184 µM) and 25 µg/mL (≈ 46 µM), respectively. Besides, the ED50 in the series listed under Rattus norvegicus [1] was determined as 12.46 µmol. The Activity with Rattus norvegicus [2] amounted to 10%.
